Experimental data taken from patent publication US20240301319A1, “PERFUMING COMPOSITIONS” (FIRMNICH SA, priority 2017, published 2024).
Like-named read-outs stand apart in the source and are kept apart here.

Tests used:
[1] = Volatility of perfuming compounds (Tables 4 to 10), with top/middle/bottom note type; type: physicochemical
Summary of the method: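 Note type follows from air volatility (μg/l): bottom 49–0.1, middle 99–50, top 70,000–100. Compounds are listed within watery, green, fruity, citrus, sweet, gourmand and woody families.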

[2] = Odor threshold and odor value of perfuming compounds (Tables 4 to 10)
[3] = Table 8, perfuming compounds having a sweet note
[4] = Table 8, perfuming compounds having a sweet note, note type by volatility
[5] = note type (Top/Middle/Bottom) by volatility, perfuming compounds having a green note
[6] = perfuming compounds having a green note
[7] = Table 6, perfuming compounds having a fruity note
[8] = Table 6, perfuming compounds having a fruity note, note type by volatility
[9] = Table 9, perfuming compounds having a gourmand note, note type by volatility
[10] = Table 7, citrus note, top, middle or bottom note
[11] = Table 7, citrus note, equals volatility divided by odor threshold
[12] = Table 10, perfuming compounds having a woody note, note type by volatility

SMILES | Volatility [1, 3] [μg/l air] | Type [1, 4] | Type [1, 5] | Volatility (μg/l air) [1, 6] [μg/l air] | Volatility [1, 7] [μg/l air] | Volatility ([1]; Table 9, gourmand note) [μg/l air] | Type [1, 9] | Odor Threshold [2, 3] [μg/l air] | Odor Value [2, 3] | Odor Threshold (μg/l air) [2, 6] [μg/l air] | Type [1, 8] | Odor Threshold [2, 7] [μg/l air] | Odor Value [2, 7] | Odor Threshold ([2]; Table 9, gourmand note) [μg/l air] | also measured
CCCC1CCC(O)C(OC)C1 (stereo not shown) [2-METHOXY-4-PROPYL-1-CYCLOHEXANOL] | – | – | Top | – | – | – | – | – | – | 2.85E−02 | – | – | – | – | Volatility (μg/l air) [1]: 189.74 μg/l air
COc1cc(C=O)ccc1OC(=O)C(C)C | 1.01 | Bottom | – | – | 1.01 | 1.01 | Bottom | 7.33E−05 | 1.38E+04 | – | Bottom | 7.33E−05 | 1.38E+04 | 7.33E−05 | –
CC/C=C\CCCCC=O [(Z)-6-NONENAL] | – | – | Top | 2431.73 | – | – | – | – | – | 2.91E−05 | – | – | – | – | –
CCCCC/C=C/CCC=O [(E)-4-DECENAL] | – | – | – | – | – | – | – | – | – | – | – | – | – | – | Volatility (μg/l air) ([1]; Table 7, citrus note): 691.34 μg/l air; Type [1, 10]: Top; Odor Threshold (μg/l air) ([2]; Table 7, citrus note): 7.59E−05 μg/l air; Odor Value [2, 11]: 9.11E+06
CC(C)C(=O)OCCOc1ccccc1 [2-phenoxyethyl 2-methylpropanoate] | – | – | Bottom | 10.05 | 10.05 | – | – | – | – | 3.01E−02 | Bottom | 3.01E−02 | 3.34E+02 | – | –
CCC(CC(C)CC)=NO (stereo not shown) [5-METHYL-3-HEPTANONEOXIME] | – | – | – | – | – | 128.04 | Top | – | – | – | – | – | – | 8.80E−03 | –
CCOC(=O)CC(C)=O | – | – | Top | 2885.67 | 2885.67 | – | – | – | – | 5.83E−02 | TOP (perfuming compounds having a volatility ranging from 70,000 to 100 μg/l in air are referred to as “top notes”) | – | – | – | –
CC(C)OCCc1ccccc1 [(2-ISOPROPOXYETHYL)BENZENE] | – | – | Top | – | – | – | – | – | – | 1.65E−03 | – | – | – | – | Volatility (μg/l air) [1]: 1714.82 μg/l air
CCCCCCCCC(C)C=O (racemic) [(+−)-2-methyldecanal″] | – | – | – | – | – | – | – | – | – | – | – | – | – | – | Volatility (μg/l air) ([1]; Table 4, watery note): 297.74 μg/l air; Type ([1]; Table 4, watery note, top, middle or bottom note): TOP (perfuming compounds having a volatility ranging from 70,000 to 100 μg/l in air are referred to as “top notes”); Odor Threshold (μg/l air) ([2]; Table 4, watery note): 9.00E−04 μg/l air; Odor Value ([2]; Table 4, watery note, equals volatility divided by odor threshold): 3.31E+05
CCCCC[C@@H]1OC(=O)C[C@H]1C (racemic) [(+−)-TRANS-3-METHYL-4-NONANOLIDE] | 21.05 | Bottom | – | – | 21.05 | 21.05 | Bottom | 8.33E−04 | 2.53E+04 | – | Bottom | 8.33E−04 | 2.53E+04 | 8.33E−04 | –
CC(C)(C)C(=O)OCCc1ccccc1 [2-PHENYLETHYL PIVALATE] | 71.44 | Middle | – | – | 71.44 | 71.44 | Middle | 3.85E−02 | 1.86E+03 | – | Middle | 3.85E−02 | 1.86E+03 | 3.85E−02 | –
CC(C)(C)C1CCC(=O)CC1 [4-(2-methyl-2-propanyl)cyclohexanone] | – | – | – | – | – | – | – | – | – | – | – | – | – | – | Type [1, 12]: Top; Volatility ([1]; Table 10, woody note): 755.28 μg/l air; Odor Threshold ([2]; Table 10, woody note): 1.15E−01 μg/l air

Now from value to compound, other results behind:

Volatility [1, 3] [μg/l air] | Type [1, 4] | Type [1, 5] | Volatility (μg/l air) [1, 6] [μg/l air] | Volatility [1, 7] [μg/l air] | Volatility ([1]; Table 9, gourmand note) [μg/l air] | Type [1, 9] | SMILES | Odor Threshold [2, 3] [μg/l air] | Odor Value [2, 3] | Odor Threshold (μg/l air) [2, 6] [μg/l air] | Type [1, 8] | Odor Threshold [2, 7] [μg/l air] | Odor Value [2, 7] | Odor Threshold ([2]; Table 9, gourmand note) [μg/l air] | also measured
2276.17 | Top | Top | 2276.17 | – | – | – | CCOC(=O)C(=O)C(C)CC (racemic) [(+−)-ETHYL 3-METHYL-2-OXOPENTANOATE] | 5.06E−04 | 4.50E+06 | 5.06E−04 | – | – | – | – | –
– | – | Top | 1073.97 | 1073.97 | – | – | CC/C=C\CCOC(=O)C(C)C [(Z)-3-HEXENYL ISOBUTYRATE] | – | – | 4.54E−02 | TOP (perfuming compounds having a volatility ranging from 70,000 to 100 μg/l in air are referred to as “top notes”) | – | – | – | –
– | – | – | – | 4.39 | – | – | CCC(=O)OCC(C)(C)OC(C)C1CCCC(C)(C)C1 (single isomer, unassigned; (+)) | – | – | – | Bottom | 3.69E−04 | 1.19E+04 | – | –
110.53 | Top | Top | 110.53 | – | – | – | C/C=C/C(=O)C1C(C)=CCCC1(C)C (racemic) | 1.04E−04 | 1.06E+06 | 1.04E−04 | TOP (perfuming compounds having a volatility ranging from 70,000 to 100 μg/l in air are referred to as “top notes”) | 1.04E−04 | – | – | Type [1, 12]: Top; Volatility ([1]; Table 10, woody note): 110.53 μg/l air; Odor Threshold ([2]; Table 10, woody note): 1.04E−04 μg/l air
– | – | Top | 2010.91 | – | – | – | COC(=O)C1C(C)=CCCC1(C)C (racemic) | – | – | 1.06E−02 | – | – | – | – | –
– | – | – | – | 79.34 | – | – | CC(C)(O)CCC1CCCCC1 [4-CYCLOHEXYL-2-METHYL-2-BUTANOL] | – | – | – | Middle | 2.83E−02 | 2.81E+03 | – | Volatility (μg/l air) ([1]; Table 7, citrus note): 79.34 μg/l air; Type [1, 10]: Middle; Odor Threshold (μg/l air) ([2]; Table 7, citrus note): 2.83E−02 μg/l air; Odor Value [2, 11]: 2.81E+03
0.90 | Bottom | – | – | 0.90 | 0.90 | Bottom | CCCCCCCC1CCCC(=O)O1 (racemic) [(+−)-6-heptyltetrahydro-2H-pyran-2-one] | 1.27E−04 | 7.06E+03 | – | Bottom | 1.27E−04 | 7.06E+03 | 1.27E−04 | –
– | – | Top | 23116.66 | – | – | – | C=CC1(C)CCCC(C)(C)O1 (racemic) | – | – | 1.64E−01 | – | – | – | – | –
15.81 | Bottom | – | – | – | 15.81 | Bottom | CCC(=O)/C=C/C1=C(C)CCCC1(C)C | 1.16E−04 | 1.37E+05 | – | – | – | – | 1.16E−04 | –
152.99 | Top | – | – | 152.99 | 152.99 | Top | C=C1CCCC(C)(C)C1C(=O)/C=C/C (racemic) | 3.73E−03 | 4.10E+04 | – | TOP (perfuming compounds having a volatility ranging from 70,000 to 100 μg/l in air are referred to as “top notes”) | – | – | 3.73E−03 | –
– | – | Top | 27705.98 | 27705.98 | – | – | CC(=O)OCC=C(C)C [3-methyl-2-buten-1-yl acetate] | – | – | 5.58E−02 | TOP (perfuming compounds having a volatility ranging from 70,000 to 100 μg/l in air are referred to as “top notes”) | – | – | – | –
